Holding throughout (type): cell-based
Experiment [1] has as its system Karpas299, ALCL. Put plainly: In vitro assays - tubulysin free drugs, CellTiter-Glo growth inhibition. Particulars: Homo sapiens, KARPAS-299, 96 h, free drug. The method, then: (§1) In vitro assays. Cells cultured in log-phase growth were seeded for 24 h in 96-well plates containing 150 μL RPMI 1640 supplemented with 20% FBS. Serial dilutions of antibody-drug conjugates in cell culture media were prepared at 4× working concentrations; 50 μL of each dilution was added to the 96-well plates. Following addition of ADC, cells were incubated with test articles for 4 d at 37° C. After 96 h, growth inhibition was assessed by CellTiter-Glo® (Promega, Madison, WI) and luminescence was measured on a plate reader. The IC50 value, determined in triplicate, is defined here as the concentration that results in a 50% reduction in cell growth relative to untreated controls.
(§2) In vitro assays—tubulysin free drugs. Cells were treated for 96 hours with tubulysin ether analogs (40-42) or tubulysin M (7), then assessed for viability as described in the methods.
(§3) The tubulysin ester analogs (133-137) and unsaturated ether analogs (176-179) were tested in vitro for potency relative to tubulysin M (7), following a 96 hour exposure. As shown by IC50 values (nM) of Table 2, Tubulysin esters 133-136 performed comparably to tubulysin M, with similar potencies across of the cell lines.

Experiment [2] relates to L428, MDR + HL. Described as above. Particulars: Homo sapiens, L-428, 96 h, free drug. The method, then: as §1, §2, §3
Experiment [3] concerns HL60, AML. Described as above. As to conditions: Homo sapiens, HL-60, 96 h. On the procedure:
as §1, §2, §3
(§4) A series of analogues of the ethyl ether tubulysin compound TubOEt (41) were synthesized on solid phase lanterns that maintain the ethyl ether substitution, while either varying the residue at the Ile position (203-215) or the Mep position (216-221). Following cleavage from the solid phase, the analogues were obtained in >85% purity and tested without further purification. The compounds were tested in vitro for potency relative to a sample of TubOEt synthesized in parallel on a lantern (41-lantern), following a 96 hour exposure, with IC5O values expressed in nM (Table 3). While in many cases an attenuation in activity was observed relative to 41-lantern, some well-tolerated substitutions were found. […] While this stereochemical preference is not observed when Ile is replaced with O-methyl threonine (207) or O-methyl allothreonine (206), bulkier substituents led to a greater differentiation. […] Replacement of the Mep residue was generally less-well tolerated.

Experiment [4] has as its system HL60/RV, MDR + AML. The experiment is described as above. Particulars: Homo sapiens, HL-60, 96 h. On the procedure: as §1, §2, §3, §4
Experiment [5] deals with L540cy, HL. The description is as above. Particulars: L540cy, 96 h. On the procedure:
as §1, §2, §3, §4

The test system of experiment [6] is HepG2, HCC. The experiment in a line: In vitro assays - TubOEt analogues, CellTiter-Glo growth inhibition. As to conditions: Homo sapiens, Table 3, lantern-made analogues >85% purity, 96 hour exposure. On the procedure: as §1, §4
(ATP-based viability assays read luminescence as a measure of living cells.)

The test system of experiment [7] is Ramos, NHL. Described as above. Particulars: Homo sapiens, Table 3, lantern-made analogues >85% purity, 96 hour exposure. On the procedure:
as §1, §4

Experiment [8] relates to U266 MM. The experiment is described as above. As to conditions: Homo sapiens, U-266; Table 3; lantern-made analogues >85% purity, 96 hour exposure. The method, then:
as §1, §4

[9] abbreviates: Table 1 (examples), free drug, 96 hours.
Where [10] appears, read: Table 2, free drug, 96 hour exposure.
The mark [11] stands for this setting: Table 3, lantern-made analogues >85% purity, 96 hour exposure.

Structures are written as SMILES.

On to `CC[C@H](C)[C@H](NC(=O)[C@H]1CCCCN1C)C(=O)N(C)[C@H](C[C@@H](OC(C)=O)c1nc(C(=O)N[C@@H](Cc2ccccc2)C[C@H](C)C(=O)O)cs1)C(C)C` [Compound 7, tubulysin M, reference compound], for which the IC50 in experiment [1] (Table 1 (examples), 96 hours) is 0.17 nM; in experiment [1] (Table 2, 96 hour exposure), 0.04 nM; in experiment [2] (Table 1 (examples), 96 hours), 0.11 nM; in experiment [2] (Table 2, 96 hour exposure), 0.04 nM; in experiment [3] (setting [9]), 0.3 nM; in experiment [3] (setting [10]), 0.15 nM. Besides, the 50% inhibitory concentration (IC50) in experiment [4] (setting [9]) was 2.2 nM; in experiment [4] (setting [10]), 1 nM; in experiment [5] (Table 1 (examples), free drug), 0.14 nM; in experiment [5] (setting [10]) it was 0.08 nM.
Turning to `CCO[C@H](C[C@H](C(C)C)N(C)C(=O)[C@@H](NC(=O)[C@H]1CCCCN1C)C(CC)CC)c1nc(C(=O)N[C@@H](Cc2ccccc2)C[C@H](C)C(=O)O)cs1` [Compound 203, (2S,4R)-4-(2-((1R,3R)-1-ethoxy-3-((S)-3-ethyl-N-methyl-2-((R)-1-methylpiperidine-2-carboxamido)pentanamido)-4-methylpentyl)thiazole-4-carboxamido)-2-methyl-5-phenylpentanoic acid], the IC50 in experiment [3] (setting [11]) was 8 nM; in experiment [4] (setting [11]), 604 nM; in experiment [5] (setting [11]), 1 nM; in experiment [6] it was 8 nM; in experiment [7] it was 0.4 nM; in experiment [8] it was 0.5 nM.
With `CCO[C@H](C[C@H](C(C)C)N(C)C(=O)[C@@H](NC(=O)[C@H]1CCCCN1C)[C@H](C)OC)c1nc(C(=O)N[C@@H](Cc2ccccc2)C[C@H](C)C(=O)O)cs1` [Compound 206, (2S,4R)-4-(2-((1R,3R)-1-ethoxy-3-((2S,3S)-3-methoxy-N-methyl-2-((R)-1-methylpiperidine-2-carboxamido)butanamido)-4-methylpentyl)thiazole-4-carboxamido)-2-methyl-5-phenylpentanoic acid], the IC50 in experiment [3] (setting [11]) was 16 nM; in experiment [4] (setting [11]), greater than 1000 nM; in experiment [5] (setting [11]), 6 nM; in experiment [6], 41 nM; in experiment [7], 2 nM; in experiment [8], 3 nM.
As to `CCO[C@H](C[C@H](C(C)C)N(C)C(=O)[C@@H](NC(=O)[C@H]1CCCCN1C)[C@@H](C)OC)c1nc(C(=O)N[C@@H](Cc2ccccc2)C[C@H](C)C(=O)O)cs1` [Compound 207, (2S,4R)-4-(2-((1R,3R)-1-ethoxy-3-((2S,3R)-3-methoxy-N-methyl-2-((R)-1-methylpiperidine-2-carboxamido)butanamido)-4-methylpentyl)thiazole-4-carboxamido)-2-methyl-5-phenylpentanoic acid], the IC50 in experiment [3] (setting [11]) is 9 nM; in experiment [4] (setting [11]) it was greater than 1000 nM; in experiment [5] (setting [11]), 6 nM; in experiment [6], 46 nM; in experiment [7] it was 2 nM; in experiment [8] it was 2 nM.
As to `CCO[C@H](C[C@H](C(C)C)N(C)C(=O)[C@@H](NC(=O)[C@H]1CCCCN1C)C1Cc2ccccc2C1)c1nc(C(=O)N[C@@H](Cc2ccccc2)C[C@H](C)C(=O)O)cs1` [Compound 208, (2S,4R)-4-(2-((1R,3R)-3-((S)-2-(2,3-dihydro-1H-inden-2-yl)-N-methyl-2-((R)-1-methylpiperidine-2-carboxamido)acetamido)-1-ethoxy-4-methylpentyl)thiazole-4-carboxamido)-2-methyl-5-phenylpentanoic acid], the IC50 in experiment [3] (setting [11]) is 221 nM; in experiment [4] (setting [11]), greater than 1000 nM; in experiment [5] (setting [11]), 58 nM; in experiment [6] it was 250 nM; in experiment [7], 44 nM; in experiment [8] it was 40 nM.
Regarding `CCO[C@H](C[C@H](C(C)C)N(C)C(=O)[C@@H](NC(=O)[C@H]1CCCCN1C)[C@H](C)CC)c1nc(C(=O)N[C@@H](Cc2ccccc2)C[C@H](C)C(=O)O)cs1` [Compound 209, (2S,4R)-4-(2-((1R,3R)-3-((2S,3R)—N,3-dimethyl-2-((R)-1-methylpiperidine-2-carboxamido)pentanamido)-1-ethoxy-4-methylpentyl)thiazole-4-carboxamido)-2-methyl-5-phenylpentanoic acid], the half-maximal inhibitory concentration (IC50) was 15 nM in experiment [3] (setting [11]); greater than 1000 nM in experiment [4] (setting [11]); 12 nM in experiment [5] (setting [11]); 50 nM in experiment [6]; 7 nM in experiment [7]; 8 nM in experiment [8].
Consider `CCO[C@H](C[C@H](C(C)C)N(C)C(=O)C(NC(=O)[C@H]1CCCCN1C)C12CC(F)(C1)C2)c1nc(C(=O)N[C@@H](Cc2ccccc2)C[C@H](C)C(=O)O)cs1` (stereo partly drawn) [Compound 211, (2S,4R)-4-(2-((1R,3R)-1-ethoxy-3-(2-(3-fluorobicyclo[1.1.1]pentan-1-yl)-N-methyl-2-((R)-1-methylpiperidine-2-carboxamido)acetamido)-4-methylpentyl)thiazole-4-carboxamido)-2-methyl-5-phenylpentanoic acid], for which the half-maximal inhibitory concentration (IC50) in experiment [3] (setting [11]) is 5 nM; in experiment [4] (setting [11]), 224 nM; in experiment [5] (setting [11]), 2 nM; in experiment [6], 14 nM; in experiment [7], 1 nM; in experiment [8], 2 nM.
With `CCO[C@H](C[C@H](C(C)C)N(C)C(=O)[C@H](CC1CC1)NC(=O)[C@H]1CCCCN1C)c1nc(C(=O)N[C@@H](Cc2ccccc2)C[C@H](C)C(=O)O)cs1` [Compound 212, (2S,4R)-4-(2-((1R,3R)-3-((S)-3-cyclopropyl-N-methyl-2-((R)-1-methylpiperidine-2-carboxamido)propanamido)-1-ethoxy-4-methylpentyl)thiazole-4-carboxamido)-2-methyl-5-phenylpentanoic acid], the IC50 turned out to be 8 nM in experiment [3] (setting [11]); 810 nM in experiment [4] (setting [11]); 2 nM in experiment [5] (setting [11]); 19 nM in experiment [6]; 1 nM in experiment [7]; 1 nM in experiment [8].
For the compound `CCO[C@H](C[C@H](C(C)C)N(C)C(=O)[C@H](CC1CCCCC1)NC(=O)[C@H]1CCCCN1C)c1nc(C(=O)N[C@@H](Cc2ccccc2)C[C@H](C)C(=O)O)cs1` [Compound 213, (2S,4R)-4-(2-((1R,3R)-3-((S)-3-cyclohexyl-N-methyl-2-((R)-1-methylpiperidine-2-carboxamido)propanamido)-1-ethoxy-4-methylpentyl)thiazole-4-carboxamido)-2-methyl-5-phenylpentanoic acid], the IC50 was 42 nM in experiment [3] (setting [11]); greater than 1000 nM in experiment [4] (setting [11]); 20 nM in experiment [5] (setting [11]); 70 nM in experiment [6]; 10 nM in experiment [7]; 9 nM in experiment [8].
For `CCO[C@H](C[C@H](C(C)C)N(C)C(=O)[C@@H](NC(=O)[C@H]1CCCCN1C)[C@H](C)OC(C)(C)C)c1nc(C(=O)N[C@@H](Cc2ccccc2)C[C@H](C)C(=O)O)cs1` [Compound 214, (2S,4R)-4-(2-((1R,3R)-3-((2S,3S)-3-(tert-butoxy)-N-methyl-2-((R)-1-methylpiperidine-2-carboxamido)butanamido)-1-ethoxy-4-methylpentyl)thiazole-4-carboxamido)-2-methyl-5-phenylpentanoic acid], the IC50 in experiment [3] (setting [11]) is 190 nM; in experiment [4] (setting [11]), greater than 1000 nM; in experiment [5] (setting [11]) it was 30 nM; in experiment [6], 91 nM; in experiment [7], 20 nM; in experiment [8] it was 22 nM.
Turning to `CCO[C@H](C[C@H](C(C)C)N(C)C(=O)[C@@H](NC(=O)[C@@H](C(C)C)N(C)C)[C@@H](C)CC)c1nc(C(=O)N[C@@H](Cc2ccccc2)C[C@H](C)C(=O)O)cs1` [Compound 220, (2S,4R)-4-(2-((3R,6S,9R,11R)-6-((S)-sec-butyl)-3,9-diisopropyl-2,8-dimethyl-4,7-dioxo-12-oxa-2,5,8-triazatetradecan-11-yl)thiazole-4-carboxamido)-2-methyl-5-phenylpentanoic acid], the half-maximal inhibitory concentration (IC50) in experiment [3] (setting [11]) was 299 nM; in experiment [4] (setting [11]) it was greater than 1000 nM; in experiment [5] (setting [11]), 13 nM; in experiment [6] it was 41 nM; in experiment [7], 10 nM; in experiment [8], 10 nM.

The IC50 is the point on the concentration scale where inhibition reaches its midpoint.

For the origin of these results see patent publication US11793880B2, “Conjugates of quaternized tubulysin compounds” (Seagen Inc., priority 2015, dated 2023).
